Experimental data from US7915402B2, “Antioxidant inflammation modulators: oleanolic acid derivatives with saturation in the C-ring” (Reata Pharmaceuticals, Inc., priority 2008, dated 2011).

How the values were obtained:
[1] = system: IFNγ-induced NO production in RAW264.7 macrophages; assay: Suppression of IFNγ-induced NO production (Griess reagent); assay type: cell-based, mouse; conditions: RAW264.7, 20 ng/ml IFNγ 24 h, 2 h pre-treatment
Description: (§1) FIGS. 1-8 and 32-34. Inhibition of NO Production. RAW264.7 macrophages were pre-treated with DMSO or drugs at various concentrations (nM) for 2 hours, then treated with 20 ng/ml IFNγ for 24 hours. NO concentration in media was determined using a Griess reagent system; cell viability was determined using WST-1 reagent.
(§2) Nitric Oxide production and cell viability. RAW264.7 macrophages were pre-treated with DMSO or drugs for 2 hours, then treated with recombinant mouse IFNγ (Sigma) for 24 hours. NO concentration in media was determined using the Griess reagent system (Promega). Cell viability was determined using WST-1 reagent (Roche).

RAW264.7 macrophages = assay: Cell viability, WST-1 reagent; assay type: cell-based, mouse; conditions: RAW264.7 (20 ng/ml IFNγ)
Description: as §1, §2

mice = assay: 9-day toxicity study in mice; assay type: in vivo; conditions: sesame oil, p.o. daily for 9 days
Description: In a second experiment, six additional compound differing only in the saturation or non-saturation of the C ring were tested for toxicity in mice by daily oral administration for 9 days, using sesame oil as the vehicle.

Row | SMILES | IC50 ([1]; Mus musculus) | IC50 (RAW264.7 macrophages; Mus musculus) | Mortality (mice; 3 mg/kg) | Mortality (mice; 10 mg/kg) | Mortality (mice; 30 mg/kg) | IC50 [1] | IC50 (RAW264.7 macrophages)
1 | COC(=O)[C@]12CCC(C)(C)C[C@H]1[C@H]1NC(=O)C[C@@H]3[C@@]4(C)C=C(C#N)C(=O)C(C)(C)[C@@H]4CC[C@@]3(C)[C@]1(C)CC2 [Compound 63296, (4aR,6aR,6bS,8aS,12aR,12bR,15aR,15bR)-methyl 2-cyano-4,4,6a,6b,11,11,15b-heptamethyl-3,14-dioxo-4,4a,5,6,6a,6b,7,8,8a,9,10,11,12,12a,12b,13,14,15,15a,15b-icosahydro-3H-dinaphtho[1,2-b:2′,1′-d]azepine-8a-carboxylate] | ~200 nM | > 200 nM | – | – | – | – | –
2 | CONC(=O)[C@]12CCC(C)(C)C[C@H]1[C@H]1C(=O)C[C@@H]3[C@@]4(C)C=C(C#N)C(=O)C(C)(C)[C@@H]4CC[C@@]3(C)[C@]1(C)CC2 [Compound 63325, (4aS,6aR,6bR,8aR,12aR,12bR,14aR,14bS)-11-cyano-N-methoxy-2,2,6a,6b,9,9,12a-heptamethyl-10,14-dioxo-1,2,3,4,4a,5,6,6a,6b,7,8,8a,9,10,12a,12b,13,14,14a,14b-icosahydropicene-4a-carboxamide] | ~50 nM | – | 0/5 | 0/5 | 0/5 | – | –
3 | COC(=O)[C@]12CCC(C)(C)C[C@H]1[C@H]1C(=O)C[C@@H]3[C@@]4(C)Cc5cnoc5C(C)(C)[C@@H]4CC[C@@]3(C)[C@]1(C)CC2 [Compound 63195] | – | – | – | – | – | > 200 nM | > 200 nM
4 | CC1(C)CC[C@]2(c3nn[nH]n3)CC[C@]3(C)[C@H](C(=O)C[C@@H]4[C@@]5(C)C=C(C#N)C(=O)C(C)(C)[C@@H]5CC[C@]43C)[C@@H]2C1 [Compound 63229, (4aR,6aR,6bR,8aS,12aS,12bR,14aR,14bR)-4,4,6a,6b,11,11,14b-heptamethyl-3,13-dioxo-8a-(2H-tetrazol-5-yl)-3,4,4a,5,6,6a,6b,7,8,8a,9,10,11,12,12a,12b,13,14,14a,14b-icosahydropicene-2-carbonitrile] | > 200 nM | > 200 nM | – | – | – | – | –
5 | Cc1nnc([C@]23CCC(C)(C)C[C@H]2[C@H]2C(=O)C[C@@H]4[C@@]5(C)C=C(C#N)C(=O)C(C)(C)[C@@H]5CC[C@@]4(C)[C@]2(C)CC3)s1 [Compound 63274, (4aR,6aR,6bR,8aS,12aS,12bR,14aR,14bR)-4,4,6a,6b,11,11,14b-heptamethyl-8a-(5-methyl-1,3,4-thiadiazol-2-yl)-3,13-dioxo-3,4,4a,5,6,6a,6b,7,8,8a,9,10,11,12,12a,12b,13,14,14a,14b-icosahydropicene-2-carbonitrile] | ~70 nM | > 200 nM | – | – | – | – | –
6 | Cn1nnc([C@]23CCC(C)(C)C[C@H]2[C@H]2C(=O)C[C@@H]4[C@@]5(C)C=C(C#N)C(=O)C(C)(C)[C@@H]5CC[C@@]4(C)[C@]2(C)CC3)n1 [Compound 63230, (4aR,6aR,6bR,8aS,12aS,12bR,14aR,14bR)-4,4,6a,6b,11,11,14b-heptamethyl-8a-(2-methyl-2H-tetrazol-5-yl)-3,13-dioxo-3,4,4a,5,6,6a,6b,7,8,8a,9,10,11,12,12a,12b,13,14,14a,14b-icosahydropicene-2-carbonitrile] | ~50 nM | > 200 nM | – | – | – | – | –
7 | CC1(C)CC[C@]2(C(=O)OCc3ccccc3)CC[C@]3(C)[C@H](C(=O)C[C@@H]4[C@@]5(C)C=C(C#N)C(=O)C(C)(C)[C@@H]5CC[C@]43C)[C@@H]2C1 [Compound 63323, (4aS,6aR,6bR,8aR,12aR,12bR,14aR,14bS)-benzyl 11-cyano-2,2,6a,6b,9,9,12a-heptamethyl-10,14-dioxo-1,2,3,4,4a,5,6,6a,6b,7,8,8a,9,10,12a,12b,13,14,14a,14b-icosahydropicene-4a-carboxylate] | ~40 nM | – | 0/5 | 0/5 | 0/5 | – | –
8 | CC1(C)CC[C@]2(C(=O)NCC(F)(F)F)CC[C@]3(C)[C@H](C(=O)C[C@@H]4[C@@]5(C)Cc6cnoc6C(C)(C)[C@@H]5CC[C@]43C)[C@@H]2C1 [Compound 63223] | – | – | – | – | – | > 200 nM | > 200 nM
9 | COC(=O)[C@]12CCC(C)(C)C[C@H]1C1OC(O)C[C@@H]3[C@@]4(C)C=C(C#N)C(=O)C(C)(C)[C@@H]4CC[C@@]3(C)[C@]1(C)CC2 (stereo partly drawn) [Compound 63289, (4aR,6aR,6bS,8aS,12aR,15aR,15bR)-methyl 2-cyano-14-hydroxy-4,4,6a,6b,11,11,15b-heptamethyl-3-oxo-3,4,4a,5,6,6a,6b,7,8,8a,9,10,11,12,12a,12b,14,15,15a,15b-icosahydrodinaphtho[1,2-b:2′,1′-d]oxepine-8a-carboxylate] | > 200 nM | > 200 nM | – | – | – | – | –
10 | CC(=O)[C@]12CCC(C)(C)C[C@H]1[C@H]1C(=O)C[C@@H]3[C@@]4(C)C=C(C#N)C(=O)C(C)(C)[C@@H]4CC[C@@]3(C)[C@]1(C)CC2 [Compound 63308, (4aR,6aR,6bR,8aS,12aS,12bR,14aR,14bR)-8a-acetyl-4,4,6a,6b,11,11,14b-heptamethyl-3,13-dioxo-3,4,4a,5,6,6a,6b,7,8,8a,9,10,11,12,12a,12b,13,14,14a,14b-icosahydropicene-2-carbonitrile] | ~25 nM | > 200 nM | – | – | – | – | –
11 | CC1(C)CC[C@]2(C(=O)NCC(F)(F)F)CC[C@]3(C)[C@H]([C@H](O)C[C@@H]4[C@@]5(C)C=C(C#N)C(=O)C(C)(C)[C@@H]5CC[C@]43C)[C@@H]2C1 [Compound 63268] | – | – | – | – | – | > 200 nM | > 200 nM
12 | COC(=O)[C@]12CCC(C)(C)C[C@H]1[C@H]1C(=O)CC3[C@@]4(C)CC(C#N)=C(O)C(C)(C)[C@@H]4CC[C@@]3(C)[C@]1(C)CC2 (stereo partly drawn) [Compound 63250, (4aS,6aR,6bR,8aR,12aR,14aR,14bS)-methyl 11-cyano-10-hydroxy-2,2,6a,6b,9,9,12a-heptamethyl-14-oxo-1,2,3,4,4a,5,6,6a,6b,7,8,8a,9,12,12a,12b,13,14,14a,14b-icosahydropicene-4a-carboxylate] | > 200 nM | > 200 nM | – | – | – | – | –
13 | CC1(C)CC[C@]2(C(=O)NCC(F)(F)F)CC[C@]3(C)[C@H](C(=O)C[C@@H]4[C@@]5(C)CC(C#N)C(=O)C(C)(C)[C@@H]5CC[C@]43C)[C@@H]2C1 (stereo partly drawn) [Compound 63227, (4aS,6aR,6bR,8aR,12aR,12bR,14aR,14bS)-11-cyano-2,2,6a,6b,9,9,12a-heptamethyl-10,14-dioxo-N-(2,2,2-trifluoroethyl)docosahydropicene-4a-carboxamide] | > 200 nM | > 200 nM | – | – | – | – | –
14 | CN(C)C(=O)[C@]12CCC(C)(C)C[C@H]1[C@H]1C(=O)C[C@@H]3[C@@]4(C)C=C(C#N)C(=O)C(C)(C)[C@@H]4CC[C@@]3(C)[C@]1(C)CC2 [Compound 63326, (4aS,6aR,6bR,8aR,12aR,12bR,14aR,14bS)-11-cyano-N,N,2,2,6a,6b,9,9,12a-nonamethyl-10,14-dioxo-1,2,3,4,4a,5,6,6a,6b,7,8,8a,9,10,12a,12b,13,14,14a,14b-icosahydropicene-4a-carboxamide] | ~50 nM | – | 0/5 | 1/5 | 0/5 | – | –
15 | CONC(=O)[C@]12CCC(C)(C)C[C@H]1[C@H]1C(=O)C=C3[C@@]4(C)C=C(C#N)C(=O)C(C)(C)[C@@H]4CC[C@@]3(C)[C@]1(C)CC2 [Compound 63166, reference compound] | – | – | 0/5 | 0/5 | 0/5 | – | –
16 | COC(=O)[C@]12CCC(C)(C)C[C@H]1[C@H]1C(=NO)C[C@@H]3[C@@]4(C)C=C(C#N)C(=O)C(C)(C)[C@@H]4CC[C@@]3(C)[C@]1(C)CC2 [Compound 63295, (4aS,6aR,6bR,8aR,12aR,12bR,14aR,14bS)-methyl 11-cyano-14-(hydroxyimino)-2,2,6a,6b,9,9,12a-heptamethyl-10-oxo-1,2,3,4,4a,5,6,6a,6b,7,8,8a,9,10,12a,12b,13,14,14a,14b-icosahydropicene-4a-carboxylate] | ~20 nM | > 200 nM | – | – | – | – | –
17 | CN(C)C(=O)[C@]12CCC(C)(C)C[C@H]1[C@H]1C(=O)C=C3[C@@]4(C)C=C(C#N)C(=O)C(C)(C)[C@@H]4CC[C@@]3(C)[C@]1(C)CC2 [Compound 63324, reference compound] | – | – | 0/5 | 0/5 | 0/5 | – | –
